Measurements published in patent publication US20250101025A1, “NOVEL PLK1 DEGRADATION INDUCING COMPOUND” (UPPTHERA, INC., priority 2021, published 2025).
Where two headings read alike, the source gives them in different places.

What was measured:
Type in all cases: cell-based
MRC-5 cell line = assay: Cell viability assay for MRC-5 cell line (EZ-Cytox cytotoxicity experiment); conditions: Homo sapiens, MRC5, 120 h, MRC-5 normal cell line, 5 days
Method: 4. Cell Viability Assay for MRC-5 Cell Line
(1) Culture of MRC-5 Cell Line
Passage of cultured cells was maintained within P15.
(2) Treatment of Compounds of the Present Invention
Then, it was cultured in 37° C.
(3) Cytotoxicity Experiment
CO2 incubator for 4 hours.

PLK1 = biological target: T1, PLK1 (Homo sapiens, UniProt P53350); assay: Luciferase assay for PLK1 in HeLa LgBit (Plk1-HiBit KI) cell line; conditions: compound 300 nM, luminescence after 9 hours
T1 construct: endogenous in cells; host or cells: HeLa LgBit (Plk1-HiBit KI): HeLa stably expressing LgBit, with HiBit knocked in at the endogenous Plk1 locus by CRISPR/Cas9
T1 sequence (P53350 whole entry): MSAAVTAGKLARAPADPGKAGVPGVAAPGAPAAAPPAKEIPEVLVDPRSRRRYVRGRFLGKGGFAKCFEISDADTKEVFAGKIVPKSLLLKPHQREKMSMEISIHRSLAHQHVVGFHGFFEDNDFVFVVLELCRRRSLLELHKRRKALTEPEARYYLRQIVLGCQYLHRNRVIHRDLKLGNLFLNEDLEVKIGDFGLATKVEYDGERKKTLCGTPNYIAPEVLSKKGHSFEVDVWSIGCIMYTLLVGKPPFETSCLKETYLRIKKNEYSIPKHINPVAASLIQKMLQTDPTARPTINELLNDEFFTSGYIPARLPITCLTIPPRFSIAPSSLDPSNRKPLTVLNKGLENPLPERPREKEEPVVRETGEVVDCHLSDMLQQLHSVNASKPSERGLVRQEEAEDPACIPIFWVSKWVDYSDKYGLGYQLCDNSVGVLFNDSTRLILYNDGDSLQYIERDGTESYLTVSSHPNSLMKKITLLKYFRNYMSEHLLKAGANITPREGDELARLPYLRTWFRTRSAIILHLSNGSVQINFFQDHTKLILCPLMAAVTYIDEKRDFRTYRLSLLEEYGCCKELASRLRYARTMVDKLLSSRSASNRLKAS
Method: 2. Luciferase Assay for PLK1
(1) Preparation and Culture of HeLa LgBit (Plk1-HiBit KI) Cell Line
A HeLa cell line in which the LgBit vector was transfected and expressed stably was prepared. Then, after constructing gRNA and donor to express the HiBit amino acid sequence behind the C-terminal of the Plk1 gene, which was inherent in the cell, it was inserted into the cell together with a vector capable of expressing CRISPR/Cas9. Only the cells in which the insertion was completed and knock-in had progressed were selected, sub-cultured and used.
(2) Treatment of Compounds of the Present Invention and Method of Luciferase Assay
In the case of HeLa LgBit (Plk1-HiBit KI), the compounds were treated after being released after thymidine block, and the process was as follows. Thymidine (Sigma-Aldrich Cat. No. T9250-5G) was completely dissolved in DW and used in the experiment. For thymidine block, the products were treated with 2 mM of thymidine and then incubated for 24 hours. For release and chemical treatment, the medium was suctioned and washed with 1×PBS. TrypLE™ was added and incubated in 37° C. CO2 incubator for 5 min. Cells neutralized by adding complete media were counted through a counter. For each well of a 96-well culture plate (SPL), 3.3×10^4 cells and a total medium volume of 150 μL were seeded and incubated in a CO2 incubator.
Each cell line was incubated in a CO2 incubator for 18 hours, and Endurazine was added to each well to make up 4% of the total volume. After adding the compound of the present invention in a 96-well white plate (SPL) to a concentration of 300 nM, the wavelength of the plate reader (BMG Labtech, CLARIOstar Plus) was set to […], and then the luminescence was tracked in real time.
In Table 2, Activity represents the ratio of the luminescence value of each Exemplary Compound treatment group to DMSO treatment group (+++: <0.3, ++<0.6, +<0.7).

H526 cell line = assay: Cell viability assay for NCI-H526 cell line (EZ-Cytox); conditions: Homo sapiens, NCI-H526, 120 h; H526 cells, 3-fold dilutions 3000 nM to 0.46 nM, 5 days
Method: (1) Culture of NCI-H526 Cell Line
(2) Treatment of Compounds of the Present Invention and Method of Cell Viability Assay
After treating the compound to each well to make the total volume of 200 μL, it was cultured in a CO2 incubator (Thermo Fisher Science, Cat. No. 4111) for 5 days.
The absorbance of the completely cultured sample was measured by setting the wavelength of a plate reader (BMG Labtech, CLARIOstar Plus) to […], and was measured after shaking for 3 minutes in a plate reader before measurement.
In Table 3, Activity represents IC50 value of each Exemplary Compound treatment group to H526 cell line (A: <30 nM, B: <50 nM, C: <100 nM, D: <200 nM, E: <400 nM).

[1] = 3-fold dilutions 10000 nM to 1.52 nM, Exemplary Compounds, numeric values, read-out: Activity: IC50 value (nM) to MRC-5 cell line
[2] = highest concentration 10000 nM, N.D. = no cytotoxicity until 10 μM, read-out: Activity: IC50 value to MRC-5 cell line, N.D. cells

COc1cc(C(=O)NC2CC3(CCN(CC4CCN(c5ccc(N(C)C6CCC(=O)NC6=O)cc5F)CC4)CC3)C2)ccc1Nc1ncc2c(n1)N(C(C)C)CC(F)(F)C(=O)N2C (stereo not drawn) [Compound 26, 4-((7,7-difluoro-9-isopropyl-5-methyl-6-oxo-6,7,8,9-tetrahydro-5H-pyrimido[4,5-b][1,4]diazepin-2-yl)amino)-N-(7-((1-(4-((2,6-dioxopiperidin-3-yl)(methyl)amino)-2-fluorophenyl)piperidin-4-yl)methyl)-7-azaspiro[3.5]nonan-2-yl)-3-methoxybenzamide]
IC50 (MRC-5 cell line; [1]): 6550 nM
Activity: ratio of the luminescence value of each Exemplary Compound treatment group to DMSO treatment group (PLK1): +++ (+++: <0.3)
IC50 (H526 cell line): < 0.05 µM

COc1cc(C(=O)NC2CCN(C(=O)CCN3CCN(c4ccc(N(C)C5CCC(=O)NC5=O)cc4F)CC3)CC2)ccc1Nc1ncc2c(n1)N(C1CCCC1)CC(F)(F)C(=O)N2C (stereo not drawn) [Compound 16, 4-((9-cyclopentyl-7,7-difluoro-5-methyl-6-oxo-6,7,8,9-tetrahydro-5H-pyrimido[4,5-b][1,4]diazepin-2-yl)amino)-N-(1-(3-(4-(4-((2,6-dioxopiperidin-3-yl)(methyl)amino)-2-fluorophenyl)piperazin-1-yl)propanoyl)piperidin-4-yl)-3-methoxybenzamide]
IC50 (MRC-5 cell line; [2]): > 10000 nM
Activity: ratio of the luminescence value of each Exemplary Compound treatment group to DMSO treatment group (PLK1): +++ (+++: <0.3)
IC50 (H526 cell line): < 0.03 µM

COc1cc(C(=O)NC2CC3(CCN(CC4CCN(c5c(F)cc(NC6CCC(=O)NC6=O)cc5F)CC4)CC3)C2)ccc1Nc1ncc2c(n1)N(C(C)C)CC(F)(F)C(=O)N2C (stereo not drawn) [Compound 25, 4-((7,7-difluoro-9-isopropyl-5-methyl-6-oxo-6,7,8,9-tetrahydro-5H-pyrimido[4,5-b][1,4]diazepin-2-yl)amino)-N-(7-((1-(4-((2,6-dioxopiperidin-3-yl)amino)-2,6-difluorophenyl)piperidin-4-yl)methyl)-7-azaspiro[3.5]nonan-2-yl)-3-methoxybenz amide]
IC50 (MRC-5 cell line; [1]): 9240 nM
Activity: ratio of the luminescence value of each Exemplary Compound treatment group to DMSO treatment group (PLK1): +++ (+++: <0.3)
IC50 (H526 cell line): < 0.03 µM

COc1cc(C(=O)NN2CCC(CN3CCN(c4c(F)cc(NC5CCC(=O)NC5=O)cc4F)CC3)CC2)ccc1Nc1ncc2c(n1)N(C(C)C)CC(F)(F)C(=O)N2C (stereo not drawn) [Compound 18, 4-((7,7-difluoro-9-isopropyl-5-methyl-6-oxo-6,7,8,9-tetrahydro-5H-pyrimido[4,5-b][1,4]diazepin-2-yl)amino)-N-(4-((4-(4-((2,6-dioxopiperidin-3-yl)amino)-2,6-difluorophenyl)piperazin-1-yl)methyl)piperidin-1-yl)-3-methoxybenzamide]
IC50 (MRC-5 cell line; [2]): > 10000 nM
Activity: ratio of the luminescence value of each Exemplary Compound treatment group to DMSO treatment group (PLK1): + (+<0.7)
IC50 (H526 cell line): < 0.03 µM

COc1cc(C(=O)NC2CC3(CCN(CC4CCN(c5c(F)cc(N(C)C6CCC(=O)NC6=O)cc5F)CC4)CC3)C2)ccc1Nc1ncc2c(n1)N(C(C)C)CC(F)(F)C(=O)N2C (stereo not drawn) [Compound 29, 4-((7,7-difluoro-9-isopropyl-5-methyl-6-oxo-6,7,8,9-tetrahydro-5H-pyrimido[4,5-b][1,4]diazepin-2-yl)amino)-N-(7-((1-(4-((2,6-dioxopiperidin-3-yl)(methyl)amino)-2,6-difluorophenyl)piperidin-4-yl)methyl)-7-azaspiro[3.5]nonan-2-yl)-3-methoxybenzamide]
IC50 (MRC-5 cell line; [1]): 18500 nM
Activity: ratio of the luminescence value of each Exemplary Compound treatment group to DMSO treatment group (PLK1): ++ (++<0.6)
IC50 (H526 cell line): < 0.05 µM

COc1cc(C(=O)NC2CC3(CCN(CC4CCN(c5ccc(OC6CCC(=O)NC6=O)cc5)CC4)CC3)C2)ccc1Nc1ncc2c(n1)N(C(C)C)CC(F)(F)C(=O)N2C (stereo not drawn) [Compound 36, 4-((7,7-difluoro-9-isopropyl-5-methyl-6-oxo-6,7,8,9-tetrahydro-5H-pyrimido[4,5-b][1,4]diazepin-2-yl)amino)-N-(7-((1-(4-((2,6-dioxopiperidin-3-yl)oxy)phenyl)piperidin-4-yl)methyl)-7-azaspiro[3.5]nonan-2-yl)-3-methoxybenzamide]
IC50 (MRC-5 cell line; [1]): 9800 nM
Activity: ratio of the luminescence value of each Exemplary Compound treatment group to DMSO treatment group (PLK1): +++ (+++: <0.3)
IC50 (H526 cell line): < 0.03 µM
